From patent US7485633B2, “Cyclopropyl fused indolobenzazepine HCV NS5B inhibitors” (Bristol-Myers Squibb Company, priority 2005, dated 2009)

Tested on: HCV
Assay: not given
Details: HCV patients, combination therapy; cited from earlier work

Compound	sustained efficacy
alpha-interferon and ribavirin	40 % of patients

Tested on: HCV replicon cells
Assay: HCV replicon FRET assay
Assay type: cell-based
Details: Hepatitis C virus
From the text: FRET Assay Preparation. To perform the HCV FRET screening assay, 96-well cell culture plates were used. The FRET peptide (Anaspec, Inc.) (Taliani et al., Anal. Biochem. 1996, 240, 60-67) contains a fluorescence donor, EDANS, near one end of the peptide and an acceptor, DABCYL, near the other end. The fluorescence of the peptide is quenched by […] resonance energy transfer (RET) between the donor and the acceptor, but as the NS3 protease cleaves the peptide the products are released from RET quenching and the fluorescence of the donor becomes apparent. The assay reagent was made as follows: 5× cell Luciferase cell culture lysis reagent from Promega (#E153A) diluted to 1× with dH2O, NaCl added to 150 mM final, the FRET peptide diluted to 20 uM final from a 2 mM stock.
To prepare plates, HCV replicon cells, with or without a Renilla luciferase reporter gene, were trypsinized and placed into each well of a 96-well plate with titrated test compounds added in columns 3 through 12; columns 1 and 2 contained a control compound (HCV protease inhibitor), and the bottom row contained cells without compound. The plates were then placed in a CO2 incubator at 37° C.
Assays. Subsequent to addition of the test compounds described above (FRET Assay Preparation), at various times the plate was removed and Alamar blue solution (Trek Diagnostics, #00-100) was added per well as a measure of cellular toxicity. After reading in a Cytoflour 4000 instrument (PE Biosystems), plates were rinsed with PBS and then used for FRET assay by the addition of 30 ul of the FRET peptide assay reagent described above (FRET Assay Preparation) per well. The plate was then placed into the Cytoflour 4000 instrument which had been set to 340 excite/490 emission, automatic mode for 20 cycles and the plate read in a kinetic mode. Typically, the signal to noise using an endpoint analysis after the reads was at least three-fold. Alternatively, after Alamar blue reading, plates were rinsed with PBS, 50 ul of DMEM (high glucose) without phenol red was added and plates were then used for luciferase assay using the Promega Dual-Glo Luciferase Assay System.
Compound analysis was determined by quantification of the relative HCV replicon inhibition and the relative cytotoxicity values. To calculate cytoxicity values, the average Alamar Blue fluorescence signals from the control wells were set as 100% non-toxic. The individual signals in each of the compound test wells were then divided by the average control signal and multiplied by 100% to determine […]. To calculate the HCV replicon inhibition values, an average background value was obtained from the two wells containing the highest amount of HCV protease inhibitor at the end of the assay period. These numbers were similar to those obtained from naïve Huh-7 cells.
The background numbers were then subtracted from the average signal obtained from the control wells and this number was used as 100% activity. The individual signals in each of the compound test wells were then divided by the averaged control values after background subtraction and multiplied by 100% to determine percent activity. EC50 values for a protease inhibitor titration were calculated as the concentration which caused a 50% reduction in FRET or luciferase activity. The two numbers generated for the compound plate, percent cytoxicity and percent activity were used to determine compounds of interest for further analysis.

Compound	EC50
O=C(O)c1ccc2c(C3CCCCC3)c3n(c2c1)C[C@]1(C(=O)N2CCOCC2)C[C@@H]1c1ccccc1-3 (single isomer, unassigned)	20 to 1000 nM
O=C(O)c1ccc2c(C3CCCCC3)c3n(c2c1)CC1(C(=O)N2CCOCC2)CC1c1ccccc1-3 (centres unmarked)	20 to 1000 nM
COC[C@H]1CN(C(=O)C23CC2c2cc(OC)ccc2-c2c(C4CCCCC4)c4ccc(C(=O)NS(=O)(=O)N(C)C)cc4n2C3)CCO1 (some centres unmarked)	20 to 1000 nM
CN(C)S(=O)(=O)NC(=O)c1ccc2c(C3CCCCC3)c3n(c2c1)C[C@]1(C(=O)N2CCOCC2)C[C@@H]1c1ccccc1-3 (single isomer, unassigned)	20 to 1000 nM
COC[C@@H]1CN(C(=O)C23CC2c2cc(OC)ccc2-c2c(C4CCCCC4)c4ccc(C(=O)NS(=O)(=O)N(C)C)cc4n2C3)CCO1 (some centres unmarked) [listing 1 of 2 here]	97 to 1000 nM
COC(=O)c1ccc2c(C3CCCCC3)c3n(c2c1)CC1(C(=O)OC)CC1c1cc(OC)ccc1-3 (centres unmarked)	20 to 1000 nM
CN(C)S(=O)(=O)NC(=O)c1ccc2c(C3CCCCC3)c3n(c2c1)CC1(C(=O)N2CCOCC2)CC1c1ccccc1-3 (centres unmarked)	20 to 1000 nM
O=C(O)c1ccc2c(C3CCCCC3)c3n(c2c1)C[C@@]1(C(=O)N2CCOCC2)C[C@H]1c1ccccc1-3 (single isomer, unassigned)	20 to 1000 nM
COc1ccc2c(c1)C1CC1(C(=O)N1C[C@@H](C)N[C@@H](C)C1)Cn1c-2c(C2CCCCC2)c2ccc(C(=O)NS(=O)(=O)N(C)C)cc21 (some centres unmarked)	20 to 1000 nM
COc1ccc2c(c1)C1CC1(C(=O)N1C[C@@H](C)O[C@@H](C)C1)Cn1c-2c(C2CCCCC2)c2ccc(C(=O)NS(=O)(=O)N(C)C)cc21 (some centres unmarked)	20 to 1000 nM
COc1ccc2c(c1)C1CC1(C(=O)N1CCOCC1)Cn1c-2c(C2CCCCC2)c2ccc(C(=O)NS(=O)(=O)N(C)C)cc21 (centres unmarked)	20 to 1000 nM
COC(=O)C12CC1c1cc(OC)ccc1-c1c(C3CCCCC3)c3ccc(C(=O)O)cc3n1C2 (centres unmarked)	1000 to 10000 nM
COC[C@@H]1CN(C(=O)C23CC2c2cc(OC)ccc2-c2c(C4CCCCC4)c4ccc(C(=O)NS(=O)(=O)N(C)C)cc4n2C3)CCO1 (some centres unmarked) [listing 2 of 2 here]	20 to 1000 nM
CN(C)S(=O)(=O)NC(=O)c1ccc2c(C3CCCCC3)c3n(c2c1)C[C@@]1(C(=O)N2CCOCC2)C[C@H]1c1ccccc1-3 (single isomer, unassigned)	20 to 1000 nM

Same assay, conditions: Hepatitis C virus, HCV replicon cells, FRET assay; read-out: EC50

Compound	EC50
CC(C)Oc1ccc2c(c1)C1CC1(C(=O)N1CCOCC1)Cn1c-2c(C2CCCCC2)c2ccc(C(=O)O)cc21 (centres unmarked)	20 to 1000 nM
Cc1ccc2c(c1)C1CC1(C(=O)N1CCOCC1)Cn1c-2c(C2CCCCC2)c2ccc(C(=O)O)cc21 (centres unmarked)	20 to 1000 nM
CC(C)Oc1ccc2c(c1)C1CC1(C(=O)N1CCOCC1)Cn1c-2c(C2CCCCC2)c2ccc(C(=O)NS(=O)(=O)N(C)C)cc21 (centres unmarked)	20 to 1000 nM
COC(=O)C12CC1c1cc(OC)ccc1-c1c(C3CCCCC3)c3ccc(C(=O)OC(C)(C)C)cc3n1C2 (centres unmarked)	> 10000 nM
COc1ccc2c(c1)C1CC1(C(=O)N1CCOCC1)Cn1c-2c(C2CCCCC2)c2ccc(C(=O)NS(=O)(=O)C3CC3)cc21 (centres unmarked)	20 to 1000 nM
COc1ccc2c(c1)C1CC1(C(=O)N1CCOCC1)Cn1c-2c(C2CCCCC2)c2ccc(C(=O)O)cc21 (centres unmarked)	20 to 1000 nM
COc1ccc2c(c1)C1CC1(C(=O)N1CCOCC1)Cn1c-2c(C2CCCCC2)c2ccc(C(=O)NS(=O)(=O)N3CCN(C)CC3)cc21 (centres unmarked)	20 to 1000 nM
COc1ccc2c(c1)C1CC1(C(=O)N1CCOCC1)Cn1c-2c(C2CCCCC2)c2ccc(C(=O)NS(=O)(=O)N3CCOCC3)cc21 (centres unmarked)	20 to 1000 nM
COc1ccc2c(c1)C1CC1(C(=O)N1CCOC(CN(C)C)C1)Cn1c-2c(C2CCCCC2)c2ccc(C(=O)NS(=O)(=O)C3CC3)cc21 (centres unmarked)	20 to 1000 nM
COc1ccc2c(c1OCc1ccccc1)C1CC1(C(=O)O)Cn1c-2c(C2CCCCC2)c2ccc(C(=O)NS(=O)(=O)N(C)C)cc21 (centres unmarked)	> 1000 nM
COc1ccc2c(c1)C1CC1(C(=O)N1CCC(N3CCOCC3)CC1)Cn1c-2c(C2CCCCC2)c2ccc(C(=O)O)cc21 (centres unmarked)	20 to 1000 nM
COc1ccc2c(c1)[C@@H]1C[C@]1(C(=O)N1CCCC[C@H]1CN(C)C)Cn1c-2c(C2CCCCC2)c2ccc(C(=O)NS(=O)(=O)N(C)C)cc21	97 to 1000 nM
COc1ccc2c(c1)C1CC1(C(=O)N1C[C@@H](C)O[C@@H](C)C1)Cn1c-2c(C2CCCCC2)c2ccc(C(=O)O)cc21 (some centres unmarked)	20 to 1000 nM
COC(=O)C12CC1c1cc(O)ccc1-c1c(C3CCCCC3)c3ccc(C(=O)NS(=O)(=O)N(C)C)cc3n1C2 (centres unmarked)	20 to 1000 nM
COc1ccc2c(c1)C1CC1(C(=O)N1C[C@@H](C)O[C@@H](C)C1)Cn1c-2c(C2CCCCC2)c2ccc(C(=O)NS(C)(=O)=O)cc21 (some centres unmarked)	97 to 1000 nM
COc1ccc2c(c1)C1C[C@]1(C(=O)O)Cn1c-2c(C2CCCCC2)c2ccc(C(=O)NS(=O)(=O)N(C)C)cc21 (some centres unmarked)	1000 to 10000 nM
CCc1ccc2c(c1)C1CC1(C(=O)N1CCOCC1)Cn1c-2c(C2CCCCC2)c2ccc(C(=O)NS(=O)(=O)N(C)C)cc21 (centres unmarked)	20 to 1000 nM
COC(=O)c1ccc2c(C3CCCCC3)c3n(c2c1)CC1(C(=O)N2CCOCC2)CC1c1ccccc1-3 (centres unmarked)	20 to 1000 nM

Compound	EC50
COc1ccc2c(c1)C1CC1(C(=O)N1CCC(N3CCOCC3)CC1)Cn1c-2c(C2CCCCC2)c2ccc(C(=O)NS(=O)(=O)C3CC3)cc21 (centres unmarked)	20 to 1000 nM
C[C@@H]1CN(C(=O)C23CC2c2cc(OCc4ccccc4)ccc2-c2c(C4CCCCC4)c4ccc(C(=O)NS(=O)(=O)N(C)C)cc4n2C3)C[C@H](C)O1 (some centres unmarked)	20 to 1000 nM
CC(C)c1ccc2c(c1)C1CC1(C(=O)N1CCOCC1)Cn1c-2c(C2CCCCC2)c2ccc(C(=O)O)cc21 (centres unmarked)	20 to 1000 nM
CCOc1ccc2c(c1)C1CC1(C(=O)N1CCOCC1)Cn1c-2c(C2CCCCC2)c2ccc(C(=O)NS(=O)(=O)N(C)C)cc21 (centres unmarked)	20 to 1000 nM
C[C@@H]1CN(C(=O)C23CC2c2cc(O)ccc2-c2c(C4CCCCC4)c4ccc(C(=O)NS(=O)(=O)N(C)C)cc4n2C3)C[C@H](C)O1 (some centres unmarked)	20 to 1000 nM
CCc1ccc2c(c1)C1CC1(C(=O)N1CCOCC1)Cn1c-2c(C2CCCCC2)c2ccc(C(=O)O)cc21 (centres unmarked)	20 to 1000 nM
CCN(C)CCN(C)C(=O)C12CC1c1cc(OC)ccc1-c1c(C3CCCCC3)c3ccc(C(=O)NS(=O)(=O)N(C)C)cc3n1C2 (centres unmarked)	97 to 1000 nM
COC(=O)c1ccc2c(C3CCCCC3)c3n(c2c1)CC1(C(=O)N2CCOCC2)CC1c1cc(OC(C)C)ccc1-3 (centres unmarked)	20 to 1000 nM
CN(C)S(=O)(=O)NC(=O)c1ccc2c(C3CCCCC3)c3n(c2c1)CC1(C(=O)N2CCOCC2)CC1c1cc(O)ccc1-3 (centres unmarked)	20 to 1000 nM
CCN(CC)C(=O)CN(C)C(=O)C12CC1c1cc(OC)ccc1-c1c(C3CCCCC3)c3ccc(C(=O)NS(=O)(=O)N(C)C)cc3n1C2 (centres unmarked)	20 to 1000 nM
COc1ccc2c(c1)[C@@H]1C[C@]1(C(=O)N1CCCC[C@@H]1CN(C)C)Cn1c-2c(C2CCCCC2)c2ccc(C(=O)NS(=O)(=O)N(C)C)cc21	97 to 1000 nM
COc1ccc2c(c1)C1C[C@@]1(C(=O)O)Cn1c-2c(C2CCCCC2)c2ccc(C(=O)NS(=O)(=O)N(C)C)cc21 (single isomer, unassigned)	1000 to 10000 nM
COc1ccc2c(c1)C1CC1(C(=O)N(C)C)Cn1c-2c(C2CCCCC2)c2ccc(C(=O)NS(=O)(=O)N(C)C)cc21 (centres unmarked)	20 to 1000 nM
CCN(CC)C1CCN(C(=O)C23CC2c2cc(OC)ccc2-c2c(C4CCCCC4)c4ccc(C(=O)NS(=O)(=O)N(C)C)cc4n2C3)CC1 (centres unmarked)	20 to 1000 nM
C=Cc1ccc2c(c1)C1CC1(C(=O)N1CCOCC1)Cn1c-2c(C2CCCCC2)c2ccc(C(=O)O)cc21 (centres unmarked)	20 to 1000 nM
COc1ccc2c(c1)C1C[C@]1(C(=O)N[C@@H]1C3CCC(C)([C@@H]1O)C3(C)C)Cn1c-2c(C2CCCCC2)c2ccc(C(=O)NS(=O)(=O)N(C)C)cc21 (some centres unmarked)	20 to 1000 nM
CCOc1ccc2c(c1)C1CC1(C(=O)N1CCOCC1)Cn1c-2c(C2CCCCC2)c2ccc(C(=O)O)cc21 (centres unmarked)	20 to 1000 nM
